Literature values as cited in patent US6887210B2, “Devices and methods for obtaining mammary fluid samples for evaluating breast diseases, including cancer” (Atossa Healthcare, Inc., priority 2000, dated 2005).

Details: rapid removal from plasma by kidney, liver and mammary gland

CC[C@H](C)[C@@H]1NC(=O)[C@H](Cc2ccc(O)cc2)NC(=O)[C@@H](N)CSSC[C@@H](C(=O)N2CCC[C@H]2C(=O)N[C@@H](CC(C)C)C(=O)NCC(N)=O)NC(=O)[C@H](CC(N)=O)NC(=O)[C@H](CCC(N)=O)NC1=O [oxytocin]
half-life of oxytocin in the human bloodstream / circulation: 10 to 15 min
